Entries after “also recorded” stand apart in the source; their conditions may differ. Where two headings read alike, the source gives them in different places.
Columns and labels:
[1] = cited from earlier work
plasma protein = details: cited from earlier work
[2] = Aqueous stability of MOLNU followed by 1H NMR; type: physicochemical; details: 25 °C; for hydrolyzed products: in 5 days
Procedure: Molnupiravir, one of the title compounds, contains an ester functional group that may hydrolyze under certain conditions. Therefore, the aqueous stability of MOLNU was investigated as a first step at pH 2.0, 7.4, and 12.0 by ^1H NMR spectroscopy.
^1H NMR spectroscopic measurements were carried out on a Bruker Avance III HD instrument (Billerica, MA, USA). The spectra were recorded with WATERGATE water suppression pulse sequence using DSS internal standard and 10% (v/v) D2O. Aqueous stability of MOLNU was followed at pH 2.0, 7.4 and 12.0.

[3] = Proton dissociation constants by pH-potentiometry; type: physicochemical
Procedure: pH-potentiometric titrations of the antiviral agents were carried out similarly to our former works.

[4] = Proton dissociation constants by UV-vis titration; type: physicochemical
Procedure: An Agilent Carry 8454 diode array spectrophotometer was used to obtain UV-vis spectra in the interval 190–1100 nm, the path length (l) was 1 cm. The spectrophotometric titrations were performed with samples containing 25–200 μM compound over the pH range 2.0–11.5 at an ionic strength of 0.10 M (KCl) and at 25 °C. Proton dissociation constants together with the individual molar absorbance spectra were calculated with the computer program PSEQUAD [52]. The program requires the following input data: measured spectra together with the corresponding pH and analytical (total) concentration of the compounds; species matrix, with approximate protonation constant(s) and the absorbing species need to be defined. The Newton–Raphson iterative method was used to obtain protonation constant(s) with standard deviations and molar spectra of the individual species.

[5] = Calculated distribution of species in different protonation states; type: physicochemical
[6] = target: T1, human serum albumin (HSA) (Homo sapiens, UniProt P02768); experiment: Ultrafiltration-UV-vis with HSA; type: in vitro ADME; details: for protein bound fraction: pH 7.4 (PBS), 25 °C
T1 construct: purchased Sigma–Aldrich A8763
T1 sequence (P02768 25-609): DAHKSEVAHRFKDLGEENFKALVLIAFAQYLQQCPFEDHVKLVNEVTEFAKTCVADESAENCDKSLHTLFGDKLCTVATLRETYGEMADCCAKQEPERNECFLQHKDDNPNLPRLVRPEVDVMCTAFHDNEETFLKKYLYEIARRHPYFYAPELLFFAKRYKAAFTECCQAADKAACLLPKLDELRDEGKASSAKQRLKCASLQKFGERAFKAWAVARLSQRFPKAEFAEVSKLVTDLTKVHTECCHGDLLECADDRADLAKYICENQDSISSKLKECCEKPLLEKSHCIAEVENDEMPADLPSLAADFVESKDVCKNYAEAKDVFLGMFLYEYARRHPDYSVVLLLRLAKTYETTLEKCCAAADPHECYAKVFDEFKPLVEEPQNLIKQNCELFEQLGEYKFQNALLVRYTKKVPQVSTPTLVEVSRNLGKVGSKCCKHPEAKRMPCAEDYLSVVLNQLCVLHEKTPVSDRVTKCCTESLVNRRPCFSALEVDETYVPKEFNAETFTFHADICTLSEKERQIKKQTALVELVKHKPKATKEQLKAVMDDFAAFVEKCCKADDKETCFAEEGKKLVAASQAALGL

HSA = target: T2, HSA (Homo sapiens, UniProt P02768); experiment: Hydrolysis of MOLNU in the presence of HSA, 1H NMR; type: in vitro ADME; details: HSA 630 μM; 1 mM MOLNU; PBS
T2 construct: purchased Sigma–Aldrich A8763
T2 sequence (P02768 25-609): as above

human transferrin = target: T3, human transferrin (Homo sapiens, UniProt P02787); experiment: Hydrolysis of MOLNU in the presence of transferrin, 1H NMR; type: in vitro ADME; details: 45 μM human transferrin; same behavior = no hydrolysis as with HSA
T3 construct: purchased Sigma–Aldrich T3309
T3 sequence (P02787 20-698): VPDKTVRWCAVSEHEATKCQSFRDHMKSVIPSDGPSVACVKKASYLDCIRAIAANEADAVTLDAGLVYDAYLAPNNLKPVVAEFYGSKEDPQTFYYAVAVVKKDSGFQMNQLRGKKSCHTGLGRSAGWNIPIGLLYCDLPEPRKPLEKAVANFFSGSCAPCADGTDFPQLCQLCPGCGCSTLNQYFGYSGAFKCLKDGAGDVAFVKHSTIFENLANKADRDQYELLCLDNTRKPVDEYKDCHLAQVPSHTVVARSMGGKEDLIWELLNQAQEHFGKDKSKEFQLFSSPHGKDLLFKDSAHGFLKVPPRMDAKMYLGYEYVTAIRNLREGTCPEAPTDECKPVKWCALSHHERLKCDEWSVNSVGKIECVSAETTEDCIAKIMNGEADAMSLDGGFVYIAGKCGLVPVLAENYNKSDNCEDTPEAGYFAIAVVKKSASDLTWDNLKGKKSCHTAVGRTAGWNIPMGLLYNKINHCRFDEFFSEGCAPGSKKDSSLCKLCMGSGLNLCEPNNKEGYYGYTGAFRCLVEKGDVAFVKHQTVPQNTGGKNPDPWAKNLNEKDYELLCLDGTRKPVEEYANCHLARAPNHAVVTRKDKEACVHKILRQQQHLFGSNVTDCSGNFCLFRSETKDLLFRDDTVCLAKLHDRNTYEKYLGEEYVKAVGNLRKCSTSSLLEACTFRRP

[7] = target: T4, α1-acid glycoprotein (AGP) (Homo sapiens, UniProt P02763); experiment: Steady-state fluorometry, quenching of AGP fluorescence; type: binding; details: for quenching of the fluorescence of AGP: pH 7.4 (PBS), 25 °C
T4 construct: purchased Sigma–Aldrich G9885
T4 sequence (P02763 19-201): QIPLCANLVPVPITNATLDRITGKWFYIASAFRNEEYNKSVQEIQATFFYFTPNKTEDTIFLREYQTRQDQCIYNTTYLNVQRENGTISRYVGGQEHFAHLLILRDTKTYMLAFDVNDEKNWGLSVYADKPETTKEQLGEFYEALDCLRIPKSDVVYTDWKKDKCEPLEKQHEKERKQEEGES

[8] = target: T5, human serum albumin (HSA), site I (Trp-214) (Homo sapiens, UniProt P02768); experiment: Steady-state fluorometry, quenching of HSA Trp-214 fluorescence; type: binding; details: pH 7.4 (PBS), 25 °C
T5 construct: purchased Sigma–Aldrich A8763
T5 sequence (P02768 25-609): as the sequence (P02768 25-609) above

HSA site I = target: T6, HSA site I (Homo sapiens, UniProt P02768); experiment: Warfarin (WF) site marker displacement from HSA; type: binding; details: HSA-WF 1:1; pH 7.4 (PBS); 25 °C
T6 construct: purchased Sigma–Aldrich A8763
T6 sequence (P02768 25-609): as above

HSA site II = target: T7, HSA site II (Homo sapiens, UniProt P02768); experiment: Dansylglycine (DG) site marker displacement from HSA; type: binding
T7 construct: purchased Sigma–Aldrich A8763
T7 sequence (P02768 25-609): as above

[9] = test system: human blood serum (HMM fraction); details: pH 7.4
physchem [10] = details: pH 2, thermodynamic from solid
physchem [11] = details: pH 2, logD2.0
[12] = Aqueous stability of FAVI and IMA followed by UV-vis spectra; type: physicochemical; details: pH 2 and 7.4; 25 °C
[13] = target: T4, α1-acid glycoprotein (AGP); experiment: Frontal analysis capillary electrophoresis (FACE) with AGP; type: binding; details: pH 7.4 (PBS); 25 °C
[14] = target: T1, human serum albumin (HSA); experiment: Frontal analysis capillary electrophoresis (FACE) with HSA; type: binding
[15] = target: T4, α1-acid glycoprotein (AGP); experiment: Dipyridamole (DIP) displacement from AGP, fluorescence anisotropy; type: binding; details: cAGP = 2.0 μM; cDIP = 1.0 μM; pH 7.4 (PBS); 25 °C
[16] = test system: α1-acid glycoprotein (AGP); details: human
HSA + AGP = details: human, 200 μM, pH 7.4
physchem [17] = experiment: physchem
physchem [18] = experiment: physchem; remark: listed apart in the source
human serum proteins = details: cited from earlier work
AGP [19] = details: pH 4.95 (acetate), 25 °C, ITC; cited from earlier work
AGP [20] = details: pH 4.95 (acetate), 25 °C, NMR spin-lattice relaxation times; cited from earlier work
AGP [21] = details: cited from earlier work
AGP (native) = details: cited from earlier work
AGP (F1-S) = details: pH 7.4 (ringer), 37 °C, circular dichroism; cited from earlier work
HSA (fatty acid free) = details: pH 7; cited from earlier work
[22] = pH 2.0, calculated from pKa values
[23] = pH 7.4, calculated from pKa values
[24] = pH 7.4, using pKa4 = 7.7 determined by Szakács et al. [48]

CC(C)C(=O)O [isobutyric acid]
pKa ([1]; I = 0.1 M NaNO3): 4.67

O=c1nc(NO)ccn1[C@@H]1O[C@H](CO)[C@@H](O)[C@H]1O [EIDD-1931, N(4)-hydroxycytidine]
plasma protein binding (plasma protein): No plasma protein binding was observed

CC(C)C(=O)OC[C@H]1O[C@@H](n2ccc(NO)nc2=O)[C@H](O)[C@@H]1O [MOLNU, molnupiravir]
hydrolyzed products ([2]; pH 2.0): 8%
hydrolyzed products ([2]; pH 7.4): 2%
time within which MOLNU hydrolyzes completely to isobutyrate and EIDD-1931 ([2]; pH 12.0, cMOLNU = 1 mM): ≤ 30 min
pKa ([3]; pKa1 (pHm)): 2.14
pKa ([3]; pKa2 (pHm)): 10.2
pKa ([4]; pKa1 (UV-vis)): 2.11
pKa ([4]; pKa2 (UV-vis)): 10.3
species H2L+ [5, 22]: 58%
species HL [5, 22]: 42%
species HL [5, 23]: HL: 100%
protein bound fraction ([6]; HSA 630 μM, 30 μM compound): < 2%
hydrolysis of MOLNU within two days (HSA): Neither of the two media could induce hydrolysis; also recorded: could not hydrolyze the ester bond
hydrolysis of MOLNU within two days (human transferrin): The same behavior was observed
quenching of the fluorescence of AGP [7]: did not quench
quenching of HSA (Trp-214) fluorescence [8]: did not significantly quench
displacement of WF from HSA site I (HSA site I): no competition
displacement of DG from HSA site II (HSA site II; HSA-DG 1:1, pH 7.4 (PBS), 25 °C): could not displace DG
protein bound fraction ([9]; 30 μM): less than 2%
solubility thermodynamic (physchem [10]): ≥ 10 mM
logD at 2 h (physchem [11]): -0.68 ± 0.02

NC(=O)c1nc(F)c[nH]c1=O [FAVI, favipiravir]
stable in aqueous media at least for [12]: ≥ 30 h
pKa ([3]; pKa1 (pHm)): 5.11
pKa ([4]; pKa1 (UV-vis)): 5.08
species L− [5, 23]: L^−:100%
protein bound fraction ([6]; HSA 50 μM, 50 μM compound, IMA corrected for 85% filter adhesion): < 2%
protein bound fraction ([6]; HSA 630 μM, 200 μM compound): < 2%
bound fraction ([6]; different concentrations of HSA): less than 2%
binding to AGP in FACE [13]: neither of the two proteins are involved in binding of FAVI
binding to HSA in FACE ([14]; up to 5 equiv. albumin, pH 7.4 (PBS), 25 °C): neither of the two proteins are involved in binding of FAVI
quenching of the fluorescence of AGP ([7]; 91 equiv. of compound): 6%
quenching of the fluorescence of AGP [7]: did not quench
quenching of HSA (Trp-214) fluorescence [8]: did not significantly quench
quenching of HSA (Trp-214) fluorescence ([8]; listed as Favipiravir): did not quench
displacement of DIP from AGP [15]: no interaction between the studied species takes place
displacement of WF from HSA site I (HSA site I): no competition
protein bound fraction ([9]; 200 μM): 22 ± 2%
bound fraction [16]: less than 2%
protein bound fraction ([16]; 25 μM): < 2%
protein bound fraction ([16]; 50 μM): < 2%
protein bound fraction ([16]; 100 μM): < 2%
protein bound fraction ([16]; 200 μM): < 2%
protein bound fraction (HSA + AGP): 2 ± 1%
solubility thermodynamic (physchem [10]): ≥ 10 mM
pKa (physchem [17]): 5.17
pKa (physchem [18]): 5.1
logD at 2 h (physchem [11]): 0.15
binding attributed to AGP (human serum proteins): 6.5%
binding attributed to HSA (human serum proteins): 65%

Cc1ccc(NC(=O)c2ccc(CN3CCN(C)CC3)cc2)cc1Nc1nccc(-c2cccnc2)n1 [IMA, imatinib]
stable in aqueous media at least for [12]: ≥ 30 h
pKa ([3]; I = 0.1 M (KCl), 25 °C, read-out: pKa2 (pHm)): 3.06
pKa ([3]; I = 0.1 M (KCl), 25 °C, read-out: pKa3 (pHm)): 3.86
pKa ([3]; I = 0.1 M (KCl), 25 °C, read-out: pKa4 (pHm)): > 7
pKa ([4]; I = 0.1 M (KCl), 25 °C, read-out: pKa1 (UV-vis)): 1.72
species H2L2+ [5, 22]: H2L^2+: 5%
species H3L3+ [5, 22]: 62%
species H4L4+ [5, 22]: 33%
species HL+ [5, 23]: 76%
species HL+ [5, 24]: 67%
species L [5, 24]: 33%
binding to HSA in FACE ([14]; pH 7.4): no considerable binding
ΔlogK′, effect of long-term storage of AGP in plastic microtubes [7]: 0.2
displacement of DG from HSA site II (HSA site II; pH 7.4): unable to displace DG
pKa4 ([1]; pH-potentiometry, I = 0.15 M NaCl, ref 48 (Szakács et al.)): 7.7
pKa (physchem [18]): 7.9
K′ (AGP [19]): 8.7 × 10^2
logK′ (AGP [19]): 2.94
logK′ (AGP [20]): 3.51
logK′ (AGP [21]): 6.69
logK′ (AGP (native); AGP (native), pH 7.4 (ringer), 37 °C, circular dichroism): 6.38
K′ (AGP (native); pH 7.4): 2.4 × 10^6 1.7 × 10^6
logK′ (AGP (F1-S)): 6.23
K′ (HSA (fatty acid free)): 1.2 × 10^5 1.0 × 10^5
